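Growth conditions: 96-well plates. Treatment: test compound, 48 hours, 5 concentrations. Analysis: linear interpolation between bracketing concentrations; unreached endpoints set to highest concentration. GI50 is the concentration that inhibits growth by half.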 Active and inactive are the calls of the source. No stated cut-off is given here; in the data, active = GI50 up to about 1.1 µM and inactive = higher. Bridge positions count the residues as written; N and C are the ends. Peptide text beside a SMILES is read from it. * marks the point of attachment. Cbz = O=C(OCc1ccccc1)*
Columns and labels:
Assay in all cases: inhibition of tumour cell growth, NCI panel, 48 h
COLO 205 = test system: COLO 205
SNB-75 = test system: SNB-75
IGROV-1 = test system: IGROV-1
HCT-15 = test system: HCT-15
K562 = test system: K562
SK-OV-3 = test system: SK-OV-3
MDA-MB-231 = test system: MDA-MB-231
OVCAR-8 = test system: OVCAR-8
SW-620 = test system: SW-620
RPMI-8226 = test system: RPMI-8226
UO-31 = test system: UO-31
HCT-116 = test system: HCT-116
BT-549 = test system: BT-549
LOX IMVI = test system: LOX IMVI
MDA-N = test system: MDA-N
RXF 393 = test system: RXF 393
SN12C = test system: SN12C
Malme-3M = test system: Malme-3M
HL-60 = test system: HL-60
Hs-578T = test system: Hs-578T

Row | SMILES | GI50 (COLO 205) | GI50 (SNB-75) | GI50 (IGROV-1) | GI50 (HCT-15) [µM] | GI50 (K562) | GI50 (SK-OV-3) | GI50 (MDA-MB-231) | GI50 (OVCAR-8) | GI50 (SW-620) | GI50 (RPMI-8226) | GI50 (UO-31) | GI50 (HCT-116) | GI50 (BT-549) | GI50 (LOX IMVI) | GI50 (MDA-N) | GI50 (RXF 393) | GI50 (SN12C) | GI50 (Malme-3M) | GI50 (HL-60) | GI50 (Hs-578T)
1 | O=C(O)c1ccccc1C(=O)Nn1cnnc1 | > 100 µM (inactive) | > 100 µM (inactive) | > 100 µM (inactive) | > 100 | > 100 µM (inactive) | > 100 µM (inactive) | > 100 µM (inactive) | > 100 µM (inactive) | > 100 µM (inactive) | > 100 µM (inactive) | > 100 µM (inactive) | > 100 µM (inactive) | > 100 µM (inactive) | > 100 µM (inactive) | > 100 µM (inactive) | > 100 µM (inactive) | > 100 µM (inactive) |  |  | 
2 | O=C(O)c1ccccc1/C=C1/Nc2ccccc2C1=O | > 100 µM (inactive) | > 100 µM (inactive) | 24.2 µM (inactive) | 41.5 | > 100 µM (inactive) | > 100 µM (inactive) | > 100 µM (inactive) | > 100 µM (inactive) | 57.5 µM (inactive) | > 100 µM (inactive) | 50 µM (inactive) | 81.5 µM (inactive) |  | 75.9 µM (inactive) | > 100 µM (inactive) | > 100 µM (inactive) | > 100 µM (inactive) | > 100 µM (inactive) | 64 µM (inactive) | 62.5 µM (inactive)
3 | CCOC(=O)C(Br)(C(N)=O)C1(O)OC(c2ccccc2)=C(Br)C1=O (stereo not given) | 17 µM (inactive) |  | 20.5 µM (inactive) | 16.7 | 22.4 µM (inactive) | 66.1 µM (inactive) | 18.4 µM (inactive) | 17.5 µM (inactive) | 20 µM (inactive) | 12.4 µM (inactive) | 21.2 µM (inactive) | 18.2 µM (inactive) | 19.2 µM (inactive) | 21.3 µM (inactive) |  | 19.3 µM (inactive) | 17.2 µM (inactive) | 25.2 µM (inactive) | 38.5 µM (inactive) | 50.7 µM (inactive)
4 | CCOC(=O)Cn1c2ccc(Br)cc2c2nc3ccccc3nc21 | > 100 µM (inactive) | > 100 µM (inactive) | 55.7 µM (inactive) |  | > 100 µM (inactive) |  | > 100 µM (inactive) | > 100 µM (inactive) | > 100 µM (inactive) | > 100 µM (inactive) | > 100 µM (inactive) | > 100 µM (inactive) |  | > 100 µM (inactive) | > 100 µM (inactive) | > 100 µM (inactive) | > 100 µM (inactive) |  |  | 93.3 µM (inactive)
5 | COc1cc(N2C(=O)C(=O)C3(CCCCC3)C2=O)cc(OC)c1OC | > 100 µM (inactive) | > 100 µM (inactive) |  | > 100 | > 100 µM (inactive) | > 100 µM (inactive) |  | > 100 µM (inactive) | > 100 µM (inactive) | > 100 µM (inactive) | 73.3 µM (inactive) | > 100 µM (inactive) | > 100 µM (inactive) | > 100 µM (inactive) | > 100 µM (inactive) | > 100 µM (inactive) | > 100 µM (inactive) | > 100 µM (inactive) | > 100 µM (inactive) | 
6 | CC1(C)N=C(/C(Cl)=[N+](/[O-])C(=O)c2ccc(F)cc2)C(C)(C)N1O | 18.5 µM (inactive) | 16.6 µM (inactive) | 19.5 µM (inactive) | 13.4 | 2.53 µM (inactive) | 22.6 µM (inactive) | 16.8 µM (inactive) | 17.5 µM (inactive) | 15.1 µM (inactive) | 14.2 µM (inactive) | 21 µM (inactive) | 16.4 µM (inactive) |  | 11.7 µM (inactive) | 16.4 µM (inactive) | 14.8 µM (inactive) | 15.8 µM (inactive) | 16.3 µM (inactive) | 10.8 µM (inactive) | 26.6 µM (inactive)
7 | Cc1cccc2c1Oc1cc(Cl)ccc1C2NC(=O)CCN1CCOCC1 (stereo not given) | > 100 µM (inactive) | 21.8 µM (inactive) | > 100 µM (inactive) | > 100 | > 100 µM (inactive) | > 100 µM (inactive) | > 100 µM (inactive) | > 100 µM (inactive) | > 100 µM (inactive) |  | 49.8 µM (inactive) | > 100 µM (inactive) | > 100 µM (inactive) | > 100 µM (inactive) | > 100 µM (inactive) |  | > 100 µM (inactive) |  | 32.2 µM (inactive) | 
8 | O=C1CCC2(CC1CC(Sc1ccccc1)Sc1ccccc1)OCCO2 (stereo not given) | 25.2 µM (inactive) | 80.4 µM (inactive) | 74.3 µM (inactive) | 37.1 | 31.9 µM (inactive) | > 100 µM (inactive) | 83.4 µM (inactive) | 42.5 µM (inactive) | 49.4 µM (inactive) | 30 µM (inactive) | 36.1 µM (inactive) |  |  | 37.4 µM (inactive) | 42.4 µM (inactive) | 36.1 µM (inactive) |  | 29.6 µM (inactive) | 19.8 µM (inactive) | 23.2 µM (inactive)
9 | Oc1ccc(/N=C/c2ccc(/C=N/c3ccc(O)cc3)cc2)cc1 | 18.5 µM (inactive) | 16.7 µM (inactive) | 20 µM (inactive) | 15 | 17.5 µM (inactive) | 16.9 µM (inactive) | 14.2 µM (inactive) | 13.8 µM (inactive) | 17.5 µM (inactive) | 10.1 µM (inactive) | 15.2 µM (inactive) | 14.8 µM (inactive) | 17.4 µM (inactive) | 16.1 µM (inactive) |  | 17.1 µM (inactive) | 14.9 µM (inactive) | 18 µM (inactive) |  | 23.6 µM (inactive)
10 | CC(=O)c1c2c(cc3c1CC1(C3)Cc3cc4c(c(C(C)=O)c3C1)CCCC4)CCCC2 | > 100 µM (inactive) |  | > 100 µM (inactive) | 51.5 | 20.1 µM (inactive) | > 100 µM (inactive) | > 100 µM (inactive) | > 100 µM (inactive) |  | 21.3 µM (inactive) | 0.104 µM (active) | 55.8 µM (inactive) |  | > 100 µM (inactive) | 38.4 µM (inactive) | > 100 µM (inactive) | > 100 µM (inactive) | > 100 µM (inactive) | 15.8 µM (inactive) | > 100 µM (inactive)
11 | CNC(=O)C1CCCCNC(=O)CCC(NC(=O)OCc2ccccc2)C(=O)N1 (stereo not drawn) (Cbz-Glu-Lys-NHMe; lactam 1-2; configuration not given here) | > 100 µM (inactive) | > 100 µM (inactive) | > 100 µM (inactive) | > 100 | > 100 µM (inactive) | > 100 µM (inactive) | > 100 µM (inactive) | > 100 µM (inactive) | > 100 µM (inactive) | > 100 µM (inactive) | > 100 µM (inactive) | > 100 µM (inactive) |  | > 100 µM (inactive) | > 100 µM (inactive) | > 100 µM (inactive) | > 100 µM (inactive) | > 100 µM (inactive) | > 100 µM (inactive) | > 100 µM (inactive)
12 | CCN(CCC#N)C(=O)Nc1ccccc1 | > 100 µM (inactive) | 93.1 µM (inactive) | > 100 µM (inactive) | > 100 | > 100 µM (inactive) | > 100 µM (inactive) | > 100 µM (inactive) | > 100 µM (inactive) | > 100 µM (inactive) | > 100 µM (inactive) | > 100 µM (inactive) | > 100 µM (inactive) | > 100 µM (inactive) | > 100 µM (inactive) | > 100 µM (inactive) | > 100 µM (inactive) | > 100 µM (inactive) | 62.7 µM (inactive) |  | 
